Assay results published in US11000601B2, “Conjugated biological molecules, pharmaceutical compositions and methods” (OBI Pharma, Inc., priority 2016, dated 2021).
Values joined by “and” are separate entries in the source; they are usually repeats but may differ in a detail not shown here. Equal entries are not always repeated. Marks after values point to notes of the source that are not given here. Square brackets hold non-standard residues; d marks the D form. Peptide text beside a SMILES is read from it. * marks the point of attachment. Dolaproine = CO[C@@H]([C@@H]1CCCN1)[C@@H](C)C(=O)O; Dil = CC[C@H](C)[C@H](NC)[C@@H](CC(=O)O)OC; X1 = C[C@@H](N*)[C@@H](O)c1ccccc1; NMeV = CN[C@H](C(=O)O)C(C)C

System: NCI-N87 (ATCC CRL-5822) human gastric carcinoma
Assay: Xenograft tumor model of human gastric carcinoma NCI-N87 in female nu/nu mice: tumor volume, T/C, TGI
Assay type: in vivo, mouse
Conditions: for Tumor Volume (mm^3), Mean / Tumor Volume (mm^3), individual animals / % T/C / % TGI / Tumor Volume, Mean / Tumor Volume, individual animal: 0.191 mg/kg × 4 IP once weekly; for Tumor Volume (mm^3), individual animals / Tumor Volume, individual animal: 0.191 mg/kg
Experimental: In a xenograft tumor model of human gastric carcinoma, viable NCI-N87 (ATCC CRL-5822) cells were subcutaneously (SC) implanted (2.5×10^6 cells/mL with matrigel (1:1) at 0.2 mL/mouse) into the right flank of female nu/nu mice. Tumor implanted mice were divided into seven treatment groups, each group containing eight animals, and one group containing five animals, and dose administrations were initiated one day after cell implantation (denoted as Day 1).
Viable human gastric carcinoma NCI-N87 (ATCC CRL-5822) cell line was purchased and cultured in Eurofins Panlabs Taiwan, Ltd. The cells were cultured in RPMI-1640 medium containing 10% fetal bovine serum (FBS) at 37° C. in 5% CO2 incubator and implanted subcutaneously in the right flank of each mouse.
Female nude (nu/nu) mice aged 5-6 weeks obtained from BioLasco Taiwan (under Charles River Laboratories Licensee) were used. The animals were housed in individually ventilated cages (IVC, 36 Mini Isolator system). The allocation for 3 animals was 27×20×14 in cm. All animals were maintained in a hygienic environment under controlled temperature (20-24° C.) and humidity (30%-70%) with 12-hour light/dark cycle. Free access to standard lab diet [MFG (Oriental Yeast Co., Ltd., Japan)] and autoclaved tap water in bottles were granted. All aspects of this work including housing, experimentation, and animal disposal were performed in general accordance with the “Guide for the Care and Use of Laboratory Animals: Eighth Edition” (National Academies Press, Washington, D.C., 2011) in our AAALAC-accredited laboratory animal facility. In addition, the animal care and use protocol was reviewed and approved by the IACUC at Eurofins Panlabs Taiwan, Ltd.
The tumor volumes, body weights, mortality, and signs of overt toxicity were monitored and recorded twice weekly for 100 days. Tumor growth inhibition was calculated as T/C (treatment/control)×100%. A T/C value≤42% compared to that of the vehicle control group was considered significant anti-tumor activity. Two-way ANOVA followed by Bonferroni test was used to ascertain the statistically significant significance of groups compared to respective vehicle control (*p<0.05).

CC[C@H](C)[C@@H]([C@@H](CC(=O)N1CCC[C@H]1[C@H](OC)[C@@H](C)C(=O)N[C@H](C)[C@@H](O)c1ccccc1)OC)N(C)C(=O)[C@@H](NC(=O)[C@@H](NC)C(C)C)C(C)C [MMAE, monomethyl auristatin E] (H-[NMeV]V[Dil][Dolaproine]-X1)
maximum percent TGI (0.191 mg/kg IP once weekly for four weeks, Day 53): 53% | anti-tumor activity (in words) (0.191 mg/kg IP once weekly for four weeks, over the course of the study): moderate anti-tumor activity | Tumor Volume (mm^3), Mean (Day 1): 96 mm^3 | Tumor Volume (mm^3), individual animals (Day 1): 61 mm^3 and 89 mm^3 and 83 mm^3 and 88 mm^3 (2×) and 125 mm^3 and 110 mm^3 and 121 mm^3 | % T/C (Day 4): 88% | % TGI (Day 4): 12% | Tumor Volume (mm^3), Mean (Day 4): 109 mm^3 | Tumor Volume (mm^3), individual animals (Day 4): 106 mm^3 and 102 mm^3 and 115 mm^3 (3×) and 104 mm^3 and 109 mm^3 | % T/C (Day 8): 83% | % TGI (Day 8): 17% | Tumor Volume (mm^3), Mean (Day 8): 122 mm^3 | Tumor Volume (mm^3), individual animals (Day 8): 117 mm^3 and 142 mm^3 and 127 mm^3 and 115 mm^3 and 110 mm^3 and 125 mm^3 and 119 mm^3 | % T/C (Day 11): 59% | % TGI (Day 11): 41% | Tumor Volume (mm^3), Mean (Day 11): 165 mm^3 | Tumor Volume (mm^3), individual animals (Day 11): 162 mm^3 and 158 mm^3 and 137 mm^3 and 169 mm^3 and 174 mm^3 and 187 mm^3 and 166 mm^3 | % T/C (Day 15): 60% | % TGI (Day 15): 40% | Tumor Volume (mm^3), Mean (Day 15): 189 mm^3 | Tumor Volume (mm^3), individual animals (Day 15): 153 mm^3 and 189 mm^3 (2×) and 178 mm^3 and 231 mm^3 and 175 mm^3 and 208 mm^3 | % T/C (Day 18): 57% | % TGI (Day 18): 43% | Tumor Volume (mm^3), Mean (Day 18): 218 mm^3 | Tumor Volume (mm^3), individual animals (Day 18): 152 mm^3 and 213 mm^3 and 234 mm^3 and 255 mm^3 and 231 mm^3 and 228 mm^3 and 211 mm^3 | % T/C (Day 22): 54% | % TGI (Day 22): 46% | Tumor Volume (mm^3), Mean (Day 22): 252 mm^3 | Tumor Volume (mm^3), individual animals (Day 22): 144 mm^3 and 201 mm^3 and 246 mm^3 and 303 mm^3 and 252 mm^3 and 322 mm^3 and 296 mm^3 | % T/C (Day 25): 53% | % TGI (Day 25): 47% | Tumor Volume (mm^3), Mean (Day 25): 277 mm^3 | Tumor Volume (mm^3), individual animals (Day 25): 146 mm^3 and 216 mm^3 and 259 mm^3 and 356 mm^3 and 315 mm^3 and 353 mm^3 and 296 mm^3 | % T/C (Day 29): 59% | % TGI (Day 29): 41% | Tumor Volume, Mean (Day 29): 371* mm^3 | Tumor Volume, individual animal (Day 29): 162 mm^3 and 277 mm^3 and 399 mm^3 and 406 mm^3 and 439 mm^3 and died and 525 mm^3 and 387 mm^3 | % T/C (Day 32): 54% | % TGI (Day 32): 46% | Tumor Volume, Mean (Day 32): 389* mm^3 | Tumor Volume, individual animal (Day 32): 160 mm^3 and 318 mm^3 and 397 mm^3 and 385 mm^3 and 446 mm^3 and died and 584 mm^3 and 432 mm^3 | % T/C (Day 36): 50% | % TGI (Day 36): 50% | Tumor Volume, Mean (Day 36): 406* mm^3 | Tumor Volume, individual animal (Day 36): 94 mm^3 and 345 mm^3 and 390 mm^3 and 389 mm^3 and 506 mm^3 and died and 658 mm^3 and 459 mm^3 | % T/C (Day 39): 47% | % TGI (Day 39): 53% | Tumor Volume, Mean (Day 39): 431* mm^3 | Tumor Volume, individual animal (Day 39): 94 mm^3 and 385 mm^3 and 407 mm^3 and 442 mm^3 and 530 mm^3 and died and 671 mm^3 and 487 mm^3 | % T/C (Day 43): 48% | % TGI (Day 43): 52% | Tumor Volume, Mean (Day 43): 477* mm^3 | Tumor Volume, individual animal (Day 43): 97 mm^3 and 414 mm^3 and 429 mm^3 and 489 mm^3 and 581 mm^3 and died and 780 mm^3 and 549 mm^3 | % T/C (Day 46): 51% | % TGI (Day 46): 49% | Tumor Volume, Mean (Day 46): 555* mm^3 | Tumor Volume, individual animal (Day 46): 91 mm^3 and 606 mm^3 and 535 mm^3 and 495 mm^3 and 719 mm^3 and died and 878 mm^3 and 561 mm^3 | % T/C (Day 50): 49% | % TGI (Day 50): 51% | Tumor Volume, Mean (Day 50): 589* mm^3 | Tumor Volume, individual animal (Day 50): 89 mm^3 and 623 mm^3 and 569 mm^3 and 550 mm^3 and 766 mm^3 and died and 936 mm^3 and 590 mm^3
